In paper PMC3602595, “The Structure of HasB Reveals a New Class of TonB Protein Fold” (PLoS ONE, 2013):
Ends that are not written are not given here.

Columns and labels:
[1] = system: HasBCTD; experiment: ITC interaction of HasBCTD with HasR TonB box peptides; format: binding, Serratia marcescens
Procedure: (§1) The TonB box peptides were synthesized with free acid C- and amine N-termini by Proteogenix (Strasbourg, France).
(§2) ITC was performed at 25°C using a MicroCal VP titration calorimeter (MicroCal-GE Healthcare) under the same conditions as described previously. The buffer was 20 mM sodium phosphate, pH 7, 50 mM NaCl for all the titrations, except for experiments carried out in the presence of HasR where 20 mM sodium phosphate, pH 7, 0.08% ZW 3–14 was used.
The heat of dilution of peptide/protein injections was determined either by injecting the ligand into the buffer alone or by injecting the ligand into the cell after the saturation of the protein binding site. The value obtained was subtracted from the heat of reaction to give the effective heat of binding. The resulting titration data were analyzed using Microcal-ORIGIN software package. The molar binding stoichiometry (N), association constant (Ka; Kd = 1/Ka) and enthalpy changes (ΔH) of binding were determined by fitting the binding isotherm to a model with one set of sites. Their values are the average of three experiments. […] For HasR titration experiments with HasB, 5–8×10^−5 M of HasBCTD wild type or mutants and 3–5 µM of HasR were used.

[2] = target: T1, TonBCTD (Escherichia coli, UniProt P02929); experiment: ITC interaction of TonBCTD with TonB box peptide; format: binding, E. coli
T1 construct: TonBCTD (TonB C-terminal domain); made in house
T1 sequence (P02929 148-239): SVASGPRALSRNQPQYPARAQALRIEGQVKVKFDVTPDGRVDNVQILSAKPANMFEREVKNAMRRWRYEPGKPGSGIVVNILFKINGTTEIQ
Procedure: Labeled and unlabeled HasBCTD (named HasB133 in our earlier publication) were prepared as described. TonBCTD of E. coli , previously named TonB116, was prepared as already reported. HasB mutations were introduced by PCR into the plasmid encoding HasBCTD wild type with the following pairs of oligonucleotides:
as §1, §2
The heat of dilution of peptide/protein injections was determined either by injecting the ligand into the buffer alone or by injecting the ligand into the cell after the saturation of the protein binding site. The value obtained was subtracted from the heat of reaction to give the effective heat of binding. The resulting titration data were analyzed using Microcal-ORIGIN software package. The molar binding stoichiometry (N), association constant (Ka; Kd = 1/Ka) and enthalpy changes (ΔH) of binding were determined by fitting the binding isotherm to a model with one set of sites. Their values are the average of three experiments. HasBCTD/TonBCTD titrations with peptides were carried out by injecting 20–35 consecutive aliquots of 5–10 µL of a 1–1.5 mM peptide solution into the ITC cell containing 4 to 9×10^−5 M of protein solution of either HasBCTD or TonBCTD. For HasR titration experiments with HasB, 5–8×10^−5 M of HasBCTD wild type or mutants and 3–5 µM of HasR were used.

[3] = system: HasBCTD; experiment: NMR chemical shift perturbation of HasBCTD by HasR TonB box peptides; format: binding, Serratia marcescens; conditions: for chemical shift perturbation in 15N-1H HSQC spectra of HasBCTD: NMR HSQC, 293K, 50 mM sodium phosphate buffer, pH 7, 50 mM NaCl, 15% D2O/H2O, peptide:HasBCTD ratios 1∶2 to 4∶1, CSP >0.2 ppm considered large
Procedure: All NMR experiments were recorded at 293K on a Varian 600 MHz spectrometer with a cryogenically cooled triple resonance ^1H/(^15N/^13C) PFG probe. Proton chemical shifts were referenced to 2,2-dimethyl-2-silapentane-5-sulfonate (DSS) as 0 ppm. ^15N and ^13C chemical shifts were referenced indirectly to DSS. The pulse sequences were taken as implemented in the Varian BioPack. NMR data were processed using NMRPipe/NMRDraw and spectra were analyzed using NMRViewJ and CCPNMR Analysis, [24]. The HasB samples used for NMR experiments were from 0.35 to 0.7 mM in 50 mM sodium phosphate buffer, pH 7, 50 mM NaCl and 15% D2O/H2O (v/v).
CSP values of ^1H and ^15N amide of HasBCTD were obtained after interaction with the TonB box peptide by comparing the ^1H-^15N HSQC spectra of free and bound HasBCTD as previously explained. The samples were prepared in 50 mM sodium phosphate buffer, pH 7, 50 mM NaCl and 15% D2O/H20 (v/v). Lyophilized peptides were added to the HasBCTD solution at 1∶2, 1∶1, 2∶1 and 4∶1 ratios. CSP values greater than 0.2 ppm were considered as large. For proline residues no chemical shift change can be observed because of the lack of backbone amide proton.

[4] = Conformation of 21-mer peptide in solution by 2D TOCSY, NOESY and ROESY; format: physicochemical; conditions: free peptide, data not shown

Row | Sequence | interaction with HasBCTD (in words) ([1]; ITC and NMR CSP) | affinity (association constant Ka) ([2]; ITC, TonBCTD, 25°C, 20 mM sodium phosphate, pH 7, 50 mM NaCl, one set of sites, average of three experiments) | Kd ([2]; ITC, TonBCTD, 25°C, 20 mM sodium phosphate, pH 7, 50 mM NaCl, Kd = 1/Ka) [µM] | interaction with TonBCTD (in words) ([2]; same range of concentration as that used with HasBCTD) | chemical shift perturbation in 15N-1H HSQC spectra of HasBCTD [3] | affinity constant (Ka) ([1]; ITC, HasBCTD, 25°C, 20 mM sodium phosphate, pH 7, 50 mM NaCl, one set of sites, average of three experiments, HasBCTD 9×10^−5 M, peptide 1.5 mM) [M⁻¹] | Kd ([1]; ITC, HasBCTD, 25°C, 20 mM sodium phosphate, pH 7, 50 mM NaCl, Kd = 1/Ka) [µM] | location of the most substantial CSP on HasBCTD ([3]; 15N HSQC, 21-mer peptide) | conformation in solution [4]
1 | ALDSLTVLGAGG [dodecamer peptide] | did not reveal any interaction with HasBCTD | about 2×10^4 M^−1 | 50 | able to bind to TonBCTD | no chemical shift perturbation could be observed |  |  |  | 
2 | GDGGALALDSLTVLGAGGNNA [21-mer peptide] |  |  |  |  | several CSP were observed | 40000 | 25 | especially along the strand β3 and on the helix H1 | unstructured in solution
